Source: patent publication US20210070748A1, “INHIBITORS OF BRUTONS TYROSINE KINASE” (Pharmacyclics LLC, priority 2015, published 2021)

Columns and labels:
Assay type in all cases: biochemical
EGFR = EGFR (Homo sapiens, UniProt P00533); experiment: Inhibition of a panel of kinases, in vitro HotSpot kinase assay: EGFR; details: D-compounds panel data; 1 μM ATP
Description: (§1) The degree of inhibition of a panel of kinases is determined using the in vitro HotSpot kinase assay (purified enzymes, ^33P-ATP, an appropriate substrate and 1 μM ATP).

BTK-WT = target: T1, BTK-WT (Homo sapiens, UniProt Q06187); experiment: Btk in vitro inhibitory activity (one of Method A TR-FRET, Method B electrophoretic mobility shift, Method C radiometric filter binding); details: D-compounds panel data; read-out: IC50 BTK-WT
T1 construct: purified from insect cells as a full-length construct containing an N-terminal 6X-His tag; His6 (N); made in house; host or cells: insect cells (baculovirus Sf21 in Method B)

SRC = SRC (Homo sapiens, UniProt P12931); experiment: Inhibition of a panel of kinases, in vitro HotSpot kinase assay: SRC; details: D-compounds panel data; 1 μM ATP
Description: as §1

TEC = target: T2, TEC (Homo sapiens, UniProt P42680); experiment: Inhibition of a panel of kinases, in vitro HotSpot kinase assay: TEC; details: D-compounds panel data; 1 μM ATP
T2 sequence (P42680 1-631): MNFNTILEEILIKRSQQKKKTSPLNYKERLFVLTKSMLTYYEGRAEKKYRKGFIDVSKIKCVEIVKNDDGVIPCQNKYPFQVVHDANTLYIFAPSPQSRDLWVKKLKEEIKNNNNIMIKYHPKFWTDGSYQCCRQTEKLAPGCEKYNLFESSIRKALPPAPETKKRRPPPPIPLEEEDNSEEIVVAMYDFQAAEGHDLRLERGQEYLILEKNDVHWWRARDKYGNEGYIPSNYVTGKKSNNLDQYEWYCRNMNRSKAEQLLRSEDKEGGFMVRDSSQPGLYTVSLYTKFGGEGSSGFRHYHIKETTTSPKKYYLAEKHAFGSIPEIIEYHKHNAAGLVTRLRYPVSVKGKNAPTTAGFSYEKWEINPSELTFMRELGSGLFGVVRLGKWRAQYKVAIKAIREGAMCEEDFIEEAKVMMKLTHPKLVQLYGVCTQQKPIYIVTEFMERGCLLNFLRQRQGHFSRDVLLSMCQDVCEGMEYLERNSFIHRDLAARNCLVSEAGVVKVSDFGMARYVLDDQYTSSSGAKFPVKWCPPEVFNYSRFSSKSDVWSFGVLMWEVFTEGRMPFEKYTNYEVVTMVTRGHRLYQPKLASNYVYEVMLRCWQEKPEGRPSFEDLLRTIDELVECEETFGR
Description: as §1

ITK = target: T3, ITK (Homo sapiens, UniProt Q08881); experiment: Inhibition of a panel of kinases, in vitro HotSpot kinase assay: ITK; details: D-compounds panel data; 1 μM ATP
T3 sequence (Q08881 1-620): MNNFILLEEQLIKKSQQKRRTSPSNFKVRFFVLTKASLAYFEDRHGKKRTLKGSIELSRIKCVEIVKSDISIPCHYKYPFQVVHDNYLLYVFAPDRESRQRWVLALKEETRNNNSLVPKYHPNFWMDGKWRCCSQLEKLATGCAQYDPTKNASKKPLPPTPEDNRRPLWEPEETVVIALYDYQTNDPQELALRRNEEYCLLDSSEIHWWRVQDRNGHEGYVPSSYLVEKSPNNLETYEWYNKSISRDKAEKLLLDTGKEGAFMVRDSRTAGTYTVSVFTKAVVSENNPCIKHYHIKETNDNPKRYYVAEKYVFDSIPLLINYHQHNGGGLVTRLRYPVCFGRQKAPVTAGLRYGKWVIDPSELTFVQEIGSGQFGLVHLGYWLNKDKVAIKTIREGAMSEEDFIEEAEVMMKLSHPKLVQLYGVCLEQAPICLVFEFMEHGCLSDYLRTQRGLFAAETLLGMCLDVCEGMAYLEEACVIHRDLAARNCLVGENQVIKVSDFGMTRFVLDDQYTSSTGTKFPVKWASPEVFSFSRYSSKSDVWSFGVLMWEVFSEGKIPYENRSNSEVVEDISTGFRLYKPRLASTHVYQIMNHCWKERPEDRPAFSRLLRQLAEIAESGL
Description: as §1

Chain of SRC (P12931 whole entry): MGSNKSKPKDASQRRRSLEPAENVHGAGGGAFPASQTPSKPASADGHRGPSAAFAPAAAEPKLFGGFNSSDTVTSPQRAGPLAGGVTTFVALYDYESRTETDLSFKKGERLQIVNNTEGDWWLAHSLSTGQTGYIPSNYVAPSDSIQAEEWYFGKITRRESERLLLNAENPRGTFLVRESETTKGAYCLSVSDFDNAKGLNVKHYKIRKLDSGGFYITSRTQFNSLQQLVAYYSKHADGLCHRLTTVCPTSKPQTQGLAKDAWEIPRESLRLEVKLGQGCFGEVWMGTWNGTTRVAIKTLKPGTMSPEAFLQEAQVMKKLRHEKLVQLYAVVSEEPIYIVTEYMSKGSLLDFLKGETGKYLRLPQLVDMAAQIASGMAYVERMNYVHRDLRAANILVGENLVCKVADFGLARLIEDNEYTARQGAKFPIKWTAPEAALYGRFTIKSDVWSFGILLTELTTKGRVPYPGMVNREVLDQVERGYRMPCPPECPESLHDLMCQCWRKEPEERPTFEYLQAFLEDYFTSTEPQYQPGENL
T1 sequence (Q06187 whole entry): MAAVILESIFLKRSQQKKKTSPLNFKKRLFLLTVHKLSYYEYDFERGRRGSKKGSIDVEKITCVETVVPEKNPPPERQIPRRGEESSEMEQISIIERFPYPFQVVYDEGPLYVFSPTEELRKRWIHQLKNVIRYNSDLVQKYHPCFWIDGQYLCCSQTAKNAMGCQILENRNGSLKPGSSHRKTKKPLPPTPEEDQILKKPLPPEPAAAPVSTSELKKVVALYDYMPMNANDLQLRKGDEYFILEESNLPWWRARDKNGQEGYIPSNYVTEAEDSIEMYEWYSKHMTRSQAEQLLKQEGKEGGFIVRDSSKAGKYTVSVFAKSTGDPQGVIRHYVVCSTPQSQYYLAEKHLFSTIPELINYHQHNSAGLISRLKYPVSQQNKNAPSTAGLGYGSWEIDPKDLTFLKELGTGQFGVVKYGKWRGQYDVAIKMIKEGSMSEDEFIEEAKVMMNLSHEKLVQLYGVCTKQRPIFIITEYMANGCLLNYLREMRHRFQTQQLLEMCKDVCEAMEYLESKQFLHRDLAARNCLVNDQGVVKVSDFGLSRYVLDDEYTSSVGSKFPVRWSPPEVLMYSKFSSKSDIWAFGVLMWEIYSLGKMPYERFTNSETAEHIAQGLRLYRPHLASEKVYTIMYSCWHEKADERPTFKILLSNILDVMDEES
Chain of EGFR (P00533 25-1210): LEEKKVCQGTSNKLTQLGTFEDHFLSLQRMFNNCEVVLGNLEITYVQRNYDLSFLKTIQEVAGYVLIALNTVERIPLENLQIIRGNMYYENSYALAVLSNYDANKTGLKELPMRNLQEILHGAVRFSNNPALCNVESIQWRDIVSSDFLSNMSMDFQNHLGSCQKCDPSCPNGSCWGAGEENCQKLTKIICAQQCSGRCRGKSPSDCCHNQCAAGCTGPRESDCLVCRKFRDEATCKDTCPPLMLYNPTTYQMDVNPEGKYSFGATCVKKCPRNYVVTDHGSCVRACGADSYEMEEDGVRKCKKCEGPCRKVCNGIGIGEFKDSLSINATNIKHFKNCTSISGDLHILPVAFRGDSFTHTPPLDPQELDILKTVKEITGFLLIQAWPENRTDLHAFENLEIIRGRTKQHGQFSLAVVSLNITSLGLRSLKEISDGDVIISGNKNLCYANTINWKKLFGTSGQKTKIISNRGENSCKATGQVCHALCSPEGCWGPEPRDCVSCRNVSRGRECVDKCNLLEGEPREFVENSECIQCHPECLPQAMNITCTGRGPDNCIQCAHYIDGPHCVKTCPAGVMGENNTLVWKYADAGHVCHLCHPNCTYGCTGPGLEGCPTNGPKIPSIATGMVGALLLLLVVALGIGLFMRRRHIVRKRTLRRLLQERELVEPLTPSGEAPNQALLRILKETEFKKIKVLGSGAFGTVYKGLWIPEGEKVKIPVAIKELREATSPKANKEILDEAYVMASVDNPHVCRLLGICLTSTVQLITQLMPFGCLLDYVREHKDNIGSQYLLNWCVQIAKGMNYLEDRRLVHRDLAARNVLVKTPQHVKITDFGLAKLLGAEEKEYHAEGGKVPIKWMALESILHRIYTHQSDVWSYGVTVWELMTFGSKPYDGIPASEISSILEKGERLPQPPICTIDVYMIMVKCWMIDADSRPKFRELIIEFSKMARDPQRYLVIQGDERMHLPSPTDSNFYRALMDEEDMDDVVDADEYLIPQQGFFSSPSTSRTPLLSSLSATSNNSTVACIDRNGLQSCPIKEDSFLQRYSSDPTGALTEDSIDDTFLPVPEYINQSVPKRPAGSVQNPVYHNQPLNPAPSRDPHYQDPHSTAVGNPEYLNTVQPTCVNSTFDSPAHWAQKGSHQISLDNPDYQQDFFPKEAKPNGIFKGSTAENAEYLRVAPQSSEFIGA

| SMILES | IC50 (EGFR) [nM] | IC50 (BTK-WT) [nM] | IC50 (SRC) [nM] | IC50 (TEC) [nM] | IC50 (ITK) [nM] |
| --- | --- | --- | --- | --- | --- |
| C[C@@H]1[C@H](NC(=O)c2ccc(C3CC3)cc2F)CCCN1c1cnc(C(N)=O)c(Nc2ccc(N3CCN(C4CCCC4)CC3)cc2)n1 [Example D-5, 3-{[4-(4-cyclopentylpiperazin-1-yl)phenyl]amino}-5-[(2R,3R)-3-(4-cyclopropyl-2-fluorobenzamido)-2-methylpiperidin-1-yl]pyrazine-2-carboxamide] | 100 to 1000 | ≤ 10 | 10 to 100 | 10 to 100 | 100 to 1000 |
| C[C@@H]1[C@H](n2ccc3cc(C4CC4)ccc3c2=O)CCCN1c1cnc(C(N)=O)c(Nc2ccc(N3CCN(C)CC3)cc2)n1 [Example D-6, 5-[(2R,3R)-3-(6-cyclopropyl-1-oxo-1,2-dihydroisoquinolin-2-yl)-2-methylpiperidin-1-yl]-3-{[4-(4-methylpiperazin-1-yl)phenyl]amino}pyrazine-2-carboxamide] | 100 to 1000 | ≤ 10 | 10 to 100 | 10 to 100 | 100 to 1000 |
| CC(C)N1CCN(c2ccc(Nc3nc(N4CCC[C@@H](NC(=O)c5ccc(C6CC6)cc5F)[C@H]4C)cnc3C(N)=O)cc2)CC1 [Example D-7, 5-[(2R,3R)-3-(4-cyclopropyl-2-fluorobenzamido)-2-methylpiperidin-1-yl]-3-({4-[4-(propan-2-yl)piperazin-1-yl]phenyl}amino)pyrazine-2-carboxamide] | 100 to 1000 | ≤ 10 | 10 to 100 | 10 to 100 | 10 to 100 |
| C[C@@H]1[C@H](NC(=O)c2ccc(C3CC3)cc2F)CCCN1c1cnc(C(N)=O)c(Nc2ccc(N3CCN(C)CC3)cn2)n1 [Example D-8, 5-[(2R,3R)-3-(4-cyclopropyl-2-fluorobenzamido)-2-methylpiperidin-1-yl]-3-{[5-(4-methylpiperazin-1-yl)pyridin-2-yl]amino}pyrazine-2-carboxamide] | > 10000 | 10 to 100 | > 10000 | 1000 to 10000 | > 10000 |
| C[C@@H]1[C@H](NC(=O)Nc2cccnc2)CCCN1c1cnc(C(N)=O)c(Nc2ccc(C3(C)CCN(C4CCCC4)CC3)cc2)n1 [Example D-9, 3-{[4-(1-cyclopentyl-4-methylpiperidin-4-yl)phenyl]amino}-5-[(2R,3R)-2-methyl-3-{[(pyridin-3-yl)carbamoyl]amino}piperidin-1-yl]pyrazine-2-carboxamide] | 10 to 100 | ≤ 10 | ≤ 10 | 10 to 100 | ≤ 10 |
| C[C@@H]1[C@H](NC(=O)c2ccc(C3CC3)cc2F)CCCN1c1cnc(C(N)=O)c(Nc2ccc(N3CCN(C)CC3=O)cc2)n1 [Example D-10, 5-[(2R,3R)-3-(4-cyclopropyl-2-fluorobenzamido)-2-methylpiperidin-1-yl]-3-{[4-(4-methyl-2-oxopiperazin-1-yl)phenyl]amino}pyrazine-2-carboxamide] | 100 to 1000 | ≤ 10 | 100 to 1000 | 10 to 100 | 100 to 1000 |
| C[C@@H]1[C@H](NC(=O)c2ccc(C(F)(F)F)cc2)CCCN1c1cnc(C(N)=O)c(Nc2ccc(N3CCN(C)CC3)cc2)n1 [Example D-11, 5-[(2R,3R)-2-methyl-3-[4-(trifluoromethyl)benzamido]piperidin-1-yl]-3-{[4-(4-methylpiperazin-1-yl)phenyl]amino}pyrazine-2-carboxamide] | 100 to 1000 | ≤ 10 | 10 to 100 | 10 to 100 | 100 to 1000 |
| C[C@@H]1[C@H](NC(=O)c2ccc(OC(F)(F)F)cc2)CCCN1c1cnc(C(N)=O)c(Nc2cnn(C)c2)n1 [Example D-95, 3-[(1-methyl-1H-pyrazol-4-yl)amino]-5-[(2R,3R)-2-methyl-3-[4-(trifluoromethoxy)benzamido]piperidin-1-yl]pyrazine-2-carboxamide] | 100 to 1000 | ≤ 10 | 100 to 1000 | 10 to 100 | 100 to 1000 |
| C[C@@H]1[C@H](NC(=O)c2ccc(C3CC3)cc2)CCCN1c1cnc(C(N)=O)c(Nc2ccc(OC3CCN(C4CCCC4)CC3)cc2)n1 [Example D-101, 3-({4-[(1-cyclopentylpiperidin-4-yl)oxy]phenyl}amino)-5-[(2R,3R)-3-(4-cyclopropylbenzamido)-2-methylpiperidin-1-yl]pyrazine-2-carboxamide] | 100 to 1000 | ≤ 10 | 10 to 100 | ≤ 10 | 10 to 100 |
| C[C@@H]1[C@H](NC(=O)N(C)C)CCCN1c1cnc(C(N)=O)c(Nc2ccc(OC3CCN(C4CCCC4)CC3)cc2)n1 [Example D-102, 3-({4-[(1-cyclopentylpiperidin-4-yl)oxy]phenyl}amino)-5-[(2R,3R)-3-[(dimethylcarbamoyl)amino]-2-methylpiperidin-1-yl]pyrazine-2-carboxamide] | 100 to 1000 | ≤ 10 | 10 to 100 | 10 to 100 | 10 to 100 |

Now from value to molecule:

| IC50 (EGFR) [nM] | IC50 (BTK-WT) [nM] | IC50 (SRC) [nM] | IC50 (TEC) [nM] | IC50 (ITK) [nM] | SMILES |
| --- | --- | --- | --- | --- | --- |
| > 10000 | 10 to 100 | > 10000 | 10 to 100 | > 10000 | C[C@@H]1[C@H](NC(=O)c2ccc(C3CC3)cc2)CCCN1c1cnc(C(N)=O)c(Nc2ccc(N3CCC(F)(F)CC3)cc2)n1 [Example D-96, 5-[(2R,3R)-3-(4-cyclopropylbenzamido)-2-methylpiperidin-1-yl]-3-{[4-(4,4-difluoropiperidin-1-yl)phenyl]amino}pyrazine-2-carboxamide] |
| > 10000 | 10 to 100 | 100 to 1000 | 10 to 100 | 1000 to 10000 | C[C@@H]1[C@H](NC(=O)c2ccc(C3CC3)cc2)CCCN1c1cnc(C(N)=O)c(Nc2ccc(N3CCN(CC(F)(F)F)CC3)cc2)n1 [Example D-97, 5-[(2R,3R)-3-(4-cyclopropylbenzamido)-2-methylpiperidin-1-yl]-3-({4-[4-(2,2,2-trifluoroethyl)piperazin-1-yl]phenyl}amino)pyrazine-2-carboxamide] |
| > 10000 | ≤ 10 | > 10000 | 100 to 1000 | 1000 to 10000 | C[C@@H]1[C@H](NC(=O)c2ccc(C3CC3)cc2)CCCN1c1cnc(C(N)=O)c(Nc2ccc(OC3CCN(CC(F)(F)F)CC3)cc2)n1 [Example D-98, 5-[(2R,3R)-3-(4-cyclopropylbenzamido)-2-methylpiperidin-1-yl]-3-[(4-{[1-(2,2,2-trifluoroethyl)piperidin-4-yl]oxy}phenyl)amino]pyrazine-2-carboxamide] |
| 1000 to 10000 | ≤ 10 | 100 to 1000 | ≤ 10 | 100 to 1000 | C[C@@H]1[C@H](NC(=O)c2ccc(C3CC3)cc2)CCCN1c1cnc(C(N)=O)c(Nc2ccc(N3CCC4(CC3)COC4)cc2)n1 [Example D-99, 5-[(2R,3R)-3-(4-cyclopropylbenzamido)-2-methylpiperidin-1-yl]-3-[(4-{2-oxa-7-azaspiro[3.5]nonan-7-yl}phenyl)amino]pyrazine-2-carboxamide] |
| 1000 to 10000 | ≤ 10 | 10 to 100 | ≤ 10 | 100 to 1000 | C[C@@H]1[C@H](NC(=O)c2ccc(C3CC3)cc2)CCCN1c1cnc(C(N)=O)c(Nc2ccc(N3CCC(C(C)(C)O)CC3)cc2)n1 [Example D-100, 5-[(2R,3R)-3-(4-cyclopropylbenzamido)-2-methylpiperidin-1-yl]-3-({4-[4-(2-hydroxypropan-2-yl)piperidin-1-yl]phenyl}amino)pyrazine-2-carboxamide] |
